Assay results: patent US9782424B2, “Synergistic combination comprising avermectins and a NSAID for tumor inhibition” (Ectin Research AB, priority 2011, dated 2017)

Test system: breast cell line (ZR-75-1)
Test: XTT-assay proliferation rate, breast cell line
Type: cell-based, human
Conditions: for Proliferation rate in per cent compared to untreated medium control: 2R-75-1 breast Ca; for Proliferation rate compared to untreated control: ZR-75-1 (Table 6)
Experimental: Commercially available human tumor cell lines were purchased from ATCC (ATCC/LGC-standards, Borás, Sweden). […] Briefly, ampoules of frozen cells were thawed by submerging into a 37° C. water bath for 45 s. […] With supernatant discarded, cell pellets were further resuspended with 5 ml complete medium into 25 cm^2 cell culture flasks (Cell+, Sarstedt, Nümbrecht, Germany). Tumor cells were cultured until sub-confluence and further sub-cultured with Trypsin (0.5%), EDTA (0.2%) solution (T4174, TE-10x, Sigma) in sterile sodium chloride. Culture media was changed two-three times a week. Culture flasks (Cell+, Sarstedt, Nümbrecht, Germany) and culture plates (Falcon/BD, Franklin Lakes, N.J., USA) were used for experimental set-ups. Cells were regularly monitored using an inverted microscope connected to a digital photo equipment (Axiovert 25 and Axiovision, Zeiss, Carl Zeiss AG, Germany) (FIG. 1). Described culture techniques and equipment have been used extensively in the laboratory
The proliferation rates of the different human tumor cell lines were studied using a method based on the conversion of a sodium salt (XTT-assay, Sigma) into a stable orange color that could be analyzed in a spectrophotometer. […] The color change was measured using a 96-well plate reader with software to calculate the absorbance at 450 nm (V-max/Softmax Pro, Molecular Devices, USA).
Increasing concentrations of substance ivermectin was added with an 8-channel pipette (Titertek, Kem-En-Tec, Taastrup, Denmark) together with sterile pipette tips (Molecular Bioproducts, San Diego, Calif., USA). Cell cultures including active substances were incubated for 24 hours (and 96 hours). Untreated wells including culture medium only served as untreated controls. The XTT-assay substrate was added and after gentle agitation using a micro plate shaker, absorbencies at 450 and 650 nm were measured. Levels from medium were subtracted and compared with control wells, using culture medium only.

## 22,23-dihydroavermectin B1a+22,23-dihydroavermectin B1b [ivermectin]
Ivermectin 10e-9 mol/L
  Proliferation rate in per cent compared to untreated medium control: 114 ± 31%
Ivermectin 10e-8 mol/L
  Proliferation rate in per cent compared to untreated medium control: 128 ± 30%
Ivermectin 10e-7 mol/L
  Proliferation rate in per cent compared to untreated medium control: 105 ± 35%
Ivermectin 10e-6 mol/L
  Proliferation rate in per cent compared to untreated medium control: 95 ± 37%
Ivermectin 10e-5 mol/L
  Proliferation rate in per cent compared to untreated medium control: 124 ± 34%
Ivermectin 10e-4 mol/L
  Proliferation rate in per cent compared to untreated medium control: 7±2%
IVM 1 μmol/L alone
  Proliferation rate compared to untreated control: 90.0 ± 5.2%
IVM 10 μmol/L alone
  Proliferation rate compared to untreated control: 60.5 ± 10.6%
IVM 100 μmol/L alone
  Proliferation rate compared to untreated control: 14.4 ± 1.7%
ZR-75-1, ivermectin 100 μM alone or in combination
  Effect on proliferation rate compared to untreated control: reduced the proliferation rate
